According to patent publication US8471005B2 (Cephalon, Inc., priority 2008, dated 2013):
Where two headings read alike, the source gives them in different places.

Key:
ALK = molecular target: T1, ALK (Homo sapiens, UniProt Q9UM73); test: ALK Kinase Assay (ELISA/TRF, PLC-γ substrate); assay type: biochemical; conditions: read-out: ALK Potency
T1 construct: host or cells: baculovirus expression system
How it was run: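 First, plates are coated with substrate (phospholipase C-γ, 10 μg/mL, TBS). Next, 30 ng/ml ALK initiates phosphorylation for 15 min at 37° C. Then Eu-N1 PT66 antibody is added for detection, and a nonlinear dose-response fit of percent inhibition yields IC50.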

JAK2 = molecular target: T2, JAK2 (Homo sapiens, UniProt O60674); test: Recombinant Human JAK2 Kinase Assay (TRF); assay type: biochemical; conditions: read-out: JAK2 Potency
T2 construct: host or cells: baculovirus expression system
How it was run: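 Europium-labelled PY100 antibody reported tyrosine phosphorylation of a Neutravidin-captured biotinyl 15-mer peptide by JAK2 (baculovirus-expressed, 15 ng/ml). Conditions: 20 mM HEPES pH 7.2, 0.2 μM ATP, 1 mM MnCl2, 0.1% BSA, DMSO 2.5% final, 20 min at room temperature.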

[1] = ALK kinase inhibition, 1 μM ATP
[2] = JAK2 kinase inhibition, 0.2 μM ATP

T2 sequence (O60674 whole entry): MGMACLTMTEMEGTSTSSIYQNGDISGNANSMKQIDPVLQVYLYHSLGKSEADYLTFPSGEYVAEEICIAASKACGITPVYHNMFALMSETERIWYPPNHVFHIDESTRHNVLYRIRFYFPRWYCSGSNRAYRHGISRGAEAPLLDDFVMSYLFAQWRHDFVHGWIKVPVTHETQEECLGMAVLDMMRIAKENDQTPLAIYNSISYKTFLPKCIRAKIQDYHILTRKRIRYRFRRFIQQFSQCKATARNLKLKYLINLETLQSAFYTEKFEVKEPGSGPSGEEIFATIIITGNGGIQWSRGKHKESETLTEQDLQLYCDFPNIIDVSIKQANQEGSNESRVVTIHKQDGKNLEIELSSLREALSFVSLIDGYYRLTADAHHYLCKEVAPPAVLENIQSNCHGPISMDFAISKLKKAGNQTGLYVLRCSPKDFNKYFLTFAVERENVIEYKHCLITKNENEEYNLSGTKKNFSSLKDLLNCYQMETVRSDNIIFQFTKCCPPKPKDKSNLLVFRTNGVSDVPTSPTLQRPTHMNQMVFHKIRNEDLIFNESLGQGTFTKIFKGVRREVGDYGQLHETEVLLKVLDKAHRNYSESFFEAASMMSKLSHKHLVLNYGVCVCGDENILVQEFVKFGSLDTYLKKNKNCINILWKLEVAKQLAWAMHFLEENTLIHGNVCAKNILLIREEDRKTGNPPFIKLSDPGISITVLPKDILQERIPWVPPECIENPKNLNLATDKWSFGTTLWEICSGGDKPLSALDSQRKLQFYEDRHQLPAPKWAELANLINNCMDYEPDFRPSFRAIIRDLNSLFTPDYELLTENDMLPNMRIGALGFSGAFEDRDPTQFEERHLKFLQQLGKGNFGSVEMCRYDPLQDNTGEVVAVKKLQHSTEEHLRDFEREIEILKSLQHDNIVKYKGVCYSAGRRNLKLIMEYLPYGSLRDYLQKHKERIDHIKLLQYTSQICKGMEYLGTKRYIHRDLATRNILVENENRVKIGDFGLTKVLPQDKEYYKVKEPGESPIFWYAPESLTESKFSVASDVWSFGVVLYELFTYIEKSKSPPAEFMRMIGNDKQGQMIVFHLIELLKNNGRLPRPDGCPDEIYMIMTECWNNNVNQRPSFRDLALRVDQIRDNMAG
T1 sequence (Q9UM73 19-1620): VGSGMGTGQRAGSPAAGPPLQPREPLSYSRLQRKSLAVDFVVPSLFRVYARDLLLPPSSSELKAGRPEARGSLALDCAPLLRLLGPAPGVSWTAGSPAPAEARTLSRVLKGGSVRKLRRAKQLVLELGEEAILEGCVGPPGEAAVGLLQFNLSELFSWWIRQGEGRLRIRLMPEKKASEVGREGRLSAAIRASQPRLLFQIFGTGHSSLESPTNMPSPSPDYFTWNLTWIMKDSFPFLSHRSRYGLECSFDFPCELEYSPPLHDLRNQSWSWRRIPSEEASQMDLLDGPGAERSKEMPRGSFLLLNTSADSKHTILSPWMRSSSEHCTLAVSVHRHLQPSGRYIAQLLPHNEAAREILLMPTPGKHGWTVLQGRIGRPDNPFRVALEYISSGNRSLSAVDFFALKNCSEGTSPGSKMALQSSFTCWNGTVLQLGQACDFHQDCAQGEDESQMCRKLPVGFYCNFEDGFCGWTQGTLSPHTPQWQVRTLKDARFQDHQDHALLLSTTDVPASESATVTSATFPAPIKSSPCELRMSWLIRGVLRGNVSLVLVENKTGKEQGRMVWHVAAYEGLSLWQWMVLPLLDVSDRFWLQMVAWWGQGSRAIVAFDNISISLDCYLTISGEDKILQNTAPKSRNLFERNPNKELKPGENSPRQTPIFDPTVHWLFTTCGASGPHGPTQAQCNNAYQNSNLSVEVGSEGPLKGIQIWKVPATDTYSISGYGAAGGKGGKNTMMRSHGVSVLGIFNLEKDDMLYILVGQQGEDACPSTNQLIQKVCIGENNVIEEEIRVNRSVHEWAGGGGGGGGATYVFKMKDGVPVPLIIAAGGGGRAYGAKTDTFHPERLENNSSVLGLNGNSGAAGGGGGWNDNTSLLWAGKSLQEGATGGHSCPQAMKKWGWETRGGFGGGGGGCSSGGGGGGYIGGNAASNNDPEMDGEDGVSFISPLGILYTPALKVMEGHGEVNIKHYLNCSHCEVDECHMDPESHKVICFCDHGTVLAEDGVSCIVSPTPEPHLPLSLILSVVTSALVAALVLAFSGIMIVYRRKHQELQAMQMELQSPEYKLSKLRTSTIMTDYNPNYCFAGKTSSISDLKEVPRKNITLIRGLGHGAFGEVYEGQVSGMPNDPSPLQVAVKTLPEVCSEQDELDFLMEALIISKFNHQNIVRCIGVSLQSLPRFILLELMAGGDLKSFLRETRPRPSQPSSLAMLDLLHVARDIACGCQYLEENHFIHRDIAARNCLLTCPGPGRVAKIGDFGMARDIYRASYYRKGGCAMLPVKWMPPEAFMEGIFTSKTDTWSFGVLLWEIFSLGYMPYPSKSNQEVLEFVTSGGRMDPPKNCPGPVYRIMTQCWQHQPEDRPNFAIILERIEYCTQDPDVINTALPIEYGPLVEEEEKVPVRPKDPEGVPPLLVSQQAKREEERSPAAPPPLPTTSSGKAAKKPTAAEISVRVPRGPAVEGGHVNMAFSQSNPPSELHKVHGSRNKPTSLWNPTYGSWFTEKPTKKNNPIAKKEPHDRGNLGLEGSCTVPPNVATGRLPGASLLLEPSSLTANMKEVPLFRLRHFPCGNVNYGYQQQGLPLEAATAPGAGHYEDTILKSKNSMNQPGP

Row | SMILES | IC50 (ALK; [1]) [nM] | IC50 (JAK2; [2]) [nM] | IC50 (ALK; ALK Kinase Inhibition) [nM] | IC50 (JAK2; JAK2 Kinase Inhibition) [nM]
1 | Cc1cc(Nc2ncc3ccc(-c4ccccc4N(C)S(C)(=O)=O)n3n2)cc2oc(=O)[nH]c12 [Example 628, N-Methyl-N-{2-[2-(4-methyl-2-oxo-2,3-dihydrobenzooxazol-6-ylamino)-pyrrolo[2,1-f][1,2,4]triazin-7-yl]phenyl}methanesulfonamide] | 100 to 1000 | < 100 | – | –
2 | COc1ccc(Cl)cc1-c1ccc2cnc(Nc3ccc(N4CCN(C[C@H](C)O)CC4)cc3)nn12 [Example 203, (S)-1-(4-{4-[7-(5-Chloro-2-methoxy-phenyl)-pyrrolo[2,1-f][1,2,4]triazin-2-ylamino]-phenyl}-piperazin-1-yl)-propan-2-ol] | – | – | < 100 | < 100
3 | CN1CCN(c2ccc(Nc3ncc4c(Br)cc(Br)n4n3)cc2)CC1 [Example 84, (5,7-Dibromo-pyrrolo[2,1-f][1,2,4]triazin-2-yl)-[4-(4-methyl-piperazin-1-yl)-phenyl]-amine] | – | – | 1000 to 10000 | < 100
4 | CC(=O)Nc1cc(Nc2ncc3ccc(-c4cccc(S(=O)(=O)NC(C)(C)C)c4)n3n2)ccc1Cl [Example 888, N-{5-[7-(3-tert-Butylsulfamoyl-phenyl)-pyrrolo[2,1-f][1,2,4]triazin-2-ylamino]-2-chloro-phenyl}-acetamide] | 100 to 1000 | < 100 | – | –
5 | CN(c1ccccc1-c1ccc2cnc(Nc3ccc(C4CN(CC(N)=O)C4)cc3)nn12)S(C)(=O)=O [Example 586, 2-[3-(4-{7-[2-(Methanesulfonyl-methyl-amino)-phenyl]-pyrrolo[2,1-f][1,2,4]triazin-2-ylamino}-phenyl)-azetidin-1-yl]-acetamide] | < 100 | < 100 | – | –
6 | Clc1cccc(Nc2ncc3cc4ccccc4n3n2)c1 [Example 271, (3-Chloro-phenyl)-[1,2,4]triazino[1,6-a]indol-2-yl-amine] | – | – | > 10000 | 100 to 1000
7 | COc1ccc(Cl)cc1-c1ccc2cnc(Nc3ccc4[nH]ccc4c3)nn12 [Example 171, [7-(5-Chloro-2-methoxy-phenyl)-pyrrolo[2,1-f][1,2,4]triazin-2-yl]-(1H-indol-5-yl)-amine] | – | – | 100 to 1000 | < 100
8 | COC(=O)c1cccc(-c2ccc3cnc(Nc4ccc(N5CCOCC5)cc4)nn23)c1 [Example 6, 3-[2-(4-Morpholin-4-yl-phenylamino)-pyrrolo[2,1-f][1,2,4]triazin-7-yl]-benzoic acid methyl ester] | – | – | > 10000 | < 100
9 | CN1CCN(C(=O)C2CCCN(c3ccc(Nc4ncc5ccc(-c6ccccc6N(C)S(C)(=O)=O)n5n4)cc3)C2)CC1 (stereo not drawn) [Example 447, N-Methyl-N-[2-(2-{4-[3-(4-methyl-piperazine-1-carbonyl)-piperidin-1-yl]-phenylamino}-pyrrolo[2,1-f][1,2,4]triazin-7-yl)-phenyl]-methanesulfonamide] | – | – | < 100 | < 100
10 | COc1ccc(-c2ccc3cnc(Nc4ccc(OC)c(N5CCOCC5)c4)nn23)cn1 [Example 397, (4-Methoxy-3-morpholin-4-yl-phenyl)-[7-(6-methoxy-pyridin-3-yl)-pyrrolo[2,1-f][1,2,4]triazin-2-yl]-amine] | – | – | 100 to 1000 | < 100
11 | COc1cc([C@@]2(O)CCN(CCF)C[C@@H]2O)ccc1Nc1ncc2ccc(-c3ccccc3N(C)S(C)(=O)=O)n2n1 (racemic) [Example 845, (±)-N-[2-(2-{4-[(3S,4S)-1-(2-Fluoro-ethyl)-3,4-dihydroxy-piperidin-4-yl]-2-methoxy-phenylamino}-pyrrolo[2,1-f][1,2,4]triazin-7-yl)-phenyl]-N-methyl-methanesulfonamide] | < 100 | 100 to 1000 | – | –

Other lines, results leading:

Row | IC50 (ALK; [1]) [nM] | IC50 (JAK2; [2]) [nM] | IC50 (ALK; ALK Kinase Inhibition) [nM] | IC50 (JAK2; JAK2 Kinase Inhibition) [nM] | SMILES
12 | < 100 | < 100 | – | – | COc1ccccc1-c1ccc2cnc(Nc3ccc(C4CCN(C)CC4)c(OC)c3)nn12 [Example 908, [3-Methoxy-4-(1-methyl-piperidin-4-yl)-phenyl]-[7-(2-methoxy-phenyl)-pyrrolo[2,1-f][1,2,4]triazin-2-yl]-amine]
13 | < 100 | 100 to 1000 | – | – | COc1cc(C2CCN(C(C)C(N)=O)CC2)ccc1Nc1ncc2ccc(-c3ccccc3OC)n2n1 (stereo not drawn) [Example 1275, 2-(4-{3-Methoxy-4-[7-(2-methoxy-phenyl)-pyrrolo[2,1-f][1,2,4]triazin-2-ylamino]-phenyl}-piperidin-1-yl)-propionamide]
14 | – | – | < 100 | 100 to 1000 | COc1cc(N2CCC(N3CCOCC3)CC2)ccc1Nc1ncc2ccc(-c3ccccc3C(C)=O)n2n1 [Example 1454, 1-(2-{2-[2-Methoxy-4-(4-morpholin-4-yl-piperidin-1-yl)-phenylamino]-pyrrolo[2,1-f][1,2,4]triazin-7-yl}-phenyl)-ethanone]
15 | 100 to 1000 | < 100 | – | – | COc1ccc(-c2ccc3cnc(Nc4ccc(CN5CCN(C)CC5)cc4)nn23)cn1 [Example 1214, [7-(6-Methoxy-pyridin-3-yl)-pyrrolo[2,1-f][1,2,4]triazin-2-yl]-[4-(4-methyl-piperazin-1-ylmethyl)-phenyl]-amine]
16 | – | – | 100 to 1000 | < 100 | NC(=O)CN1CCC(c2ccc(Nc3ncc4ccc(-c5cccc(N6CCCS6(=O)=O)c5)n4n3)cc2)CC1 [Example 1512, 2-{4-[4-({7-[3-(1,1-Dioxido-1,2-thiazolidin-2-yl)phenyl]pyrrolo[2,1-f][1,2,4]triazin-2-yl}amino)phenyl]piperidin-1-yl}acetamide]
17 | < 100 | 100 to 1000 | – | – | COc1cc(C2CCN(CC(N)=O)CC2)ccc1Nc1ncc2ccc(-c3ccc(C)cc3N(C)S(C)(=O)=O)n2n1 [Example 1280, 2-[4-(4-{7-[2-(Methanesulfonyl-methyl-amino)-4-methyl-phenyl]-pyrrolo[2,1-f][1,2,4]triazin-2-ylamino}-3-methoxy-phenyl)-piperidin-1-yl]-acetamide]
18 | > 10000 | < 100 | – | – | Cn1cnc2cc(Nc3ncc4ccc(-c5cccc(S(=O)(=O)NC(C)(C)C)c5)n4n3)ccc21 [Example 1332, N-tert-Butyl-3-[2-(1-methyl-1H-benzimidazol-5-ylamino)-pyrrolo[2,1-f][1,2,4]triazin-7-yl]-benzenesulfonamide]
19 | < 100 | < 100 | – | – | CN1CCC(c2ccc(Nc3ncc4ccc(-c5ccc(S(C)(=O)=O)cc5)n4n3)cc2)CC1 [Example 1119, [7-(4-Methanesulfonyl-phenyl)-pyrrolo[2,1-f][1,2,4]triazin-2-yl]-[4-(1-methyl-piperidin-4-yl)-phenyl]-amine]
20 | > 10000 | < 100 | – | – | CC(C)(C)NS(=O)(=O)c1cccc(-c2ccc3cnc(Nc4ccc(C5CCN(C(=O)OC(C)(C)C)CC5)cc4)nn23)c1 [Example 1058, 4-{4-[7-(3-tert-Butylsulfamoyl-phenyl)-pyrrolo[2,1-f][1,2,4]triazin-2-ylamino]-phenyl}-piperidine-1-carboxylic acid tert-butyl ester]
21 | 100 to 1000 | < 100 | – | – | CN1CCN(c2ccc(Nc3ncc4ccc(-c5cccc(CNCCS(C)(=O)=O)c5)n4n3)cc2)CC1 [Example 1162, (7-{3-[(2-Methanesulfonyl-ethylamino)-methyl]-phenyl}-pyrrolo[2,1-f][1,2,4]triazin-2-yl)-[4-(4-methyl-piperazin-1-yl)-phenyl]-amine]
